Measurements: the supplement of paper PMC11061612

Experiments:
[1] = compound: C1CN(CCC1(C(=O)N[C@@H](CCO)C2=CC=C(C=C2)Cl)N)C3=NC=NC4=C3C=CN4 [Capivasertib]; details: max 10 µM
Summary of the method: (§1)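 Cancer cell lines were seeded in 1536-well plates in 7.5 μl DMEM/F12 or RPMI with 10% FBS, held 24 hours at 37°C and 5% CO2, then dosed for 72 hours (final DMSO typically 0.2%). Viability was read by CellTiter-Glo 2.0 luminescence and scaled between blank-well and DMSO-well means. The single-agent IC50 comes from dose responses fitted to a two-parameter logistic curve with a non-linear mixed effects model.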

[2] = compound: Cn1cnc2c(F)c(Nc3ccc(Br)cc3Cl)c(C(=O)NOCCO)cc21 [Selumetinib]; details: max 10 µM
Summary of the method: as §1

[3] = compound: CCN(CCO)CCCOc1ccc2c(Nc3cc(CC(=O)Nc4cccc(F)c4)[nH]n3)ncnc2c1 [AZD2811]; details: max 1 µM
Summary of the method: as §1

[4] = compound: CC1(C)CCC(CN2CCN(c3ccc(C(=O)NS(=O)(=O)c4ccc(NCC5CCOCC5)c([N+](=O)[O-])c4)c(Oc4cnc5[nH]ccc5c4)c3)CC2)=C(c2ccc(Cl)cc2)C1 [Venetoclax]; details: max 1 µM
Summary of the method: as §1

[5] = compound: COc1cccc(OCCCN)c1-c1cc(Nc2cnc(C#N)cn2)n[nH]1 [Prexasertib]; details: max 1 µM
Summary of the method: as §1

[6] = compound: CN(CC[C@H](CSC1=CC=CC=C1)NC2=C(C=C(C=C2)S(=O)(=O)NC(=O)C3=CC=C(C=C3)N4CCC(CC4)[C@H](C5=CC=CC=C5C6=CC=C(C=C6)Cl)O)S(=O)(=O)C(F)(F)F)CCO [AZD4320]; details: max 1 µM
Summary of the method: as §1

[7] = compound: Cc1c2c(nn1C)CSCc1cc(n(C)n1)CSc1cc(c3ccccc3c1)OCCCc1c(C(=O)O)n(C)c3c-2c(Cl)ccc13 [AZD5991]; details: max 1 µM
Summary of the method: as §1

[8] = compound: C[C@@H](Nc1cc(F)cc(F)c1)c1cc(C(=O)N(C)C)cc2c(=O)cc(N3CCOCC3)oc12 [AZD8186]; details: max 3 µM
Summary of the method: as §1

[9] = compound: CC1=C(C(=CC=C1)Cl)NC(=O)C2=CN=C(S2)NC3=CC(=NC(=N3)C)N4CCN(CC4)CCO [Dasatinib]; details: max 2 µM
Summary of the method: as §1

[10] = compound: Cc1nc(-c2cn3c(n2)-c2ccc(-c4cnn(C(C)(C)C(N)=O)c4)cc2OCC3)n(C(C)C)n1 [Taselisib]; details: max 10 µM
Summary of the method: as §1

[11] = compound: C=CCn1c(=O)c2cnc(Nc3ccc(N4CCN(C)CC4)cc3)nc2n1-c1cccc(C(C)(C)O)n1 [AZD1775]; details: max 3 µM
Summary of the method: as §1

[12] = compound: CC(C)n1c(=O)n(C)c2cnc3cc(F)c(-c4ccc(OCCCN5CCCCC5)nc4)cc3c21 [AZD1390]; details: max 0.3 µM
Summary of the method: as §1

[13] = compound: COc1cccc2c1C(=O)c1c(O)c3c(c(O)c1C2=O)C[C@@](O)(C(=O)CO)C[C@@H]3O[C@H]1C[C@H](N)[C@H](O)[C@H](C)O1 [Doxorubicin]; details: max 1 µM
Summary of the method: as §1

[14] = compound: COc1cc2ncnc(Nc3ccc(F)c(Cl)c3)c2cc1OCCCN1CCOCC1 [Gefitinib]; details: max 10 µM
Summary of the method: as §1

[15] = compound: COc1cc(Nc2ncc3c(n2)-c2ccc(Cl)cc2C(c2c(F)cccc2OC)=NC3)ccc1C(=O)O [Alisertib]; details: max 10 µM
Summary of the method: as §1

[16] = compound: CC1=CN2[C@@H](C1)C=NC3=CC(=C(C=C3C2=O)OC)OCCCCCOC4=C(C=C5C(=C4)N=C[C@@H]6CC(=CN6C5=O)C)OC [SG3199]; details: max 0.001 µM
Summary of the method: as §1

[17] = compound: C[C@@H](c1ccc2nccn2c1)n1nnc2ncc(-c3cnn(C)c3)nc21 [Savolitinib]; details: max 1 µM
Summary of the method: as §1

[18] = compound: CS(=O)(=O)CCNCc1ccc(-c2ccc3ncnc(Nc4ccc(OCc5cccc(F)c5)c(Cl)c4)c3c2)o1 [Lapatinib]; details: max 10 µM
Summary of the method: as §1

[19] = compound: CCc1c2c(nc3ccc(O)cc13)-c1cc3c(c(=O)n1C2)COC(=O)[C@]3(O)CC [SN-38]; details: max 0.3 µM
Summary of the method: as §1

[20] = compound: CN(C)CCCOc1ccc(-c2ccc3ncc4c(c3c2)n(C2CCOCC2)c(=O)n4C)cn1 [AZD0156]; details: max 3 µM
Summary of the method: as §1

[21] = compound: C[C@@H]1COCCN1C2=NC(=NC(=C2)C3(CC3)[S@](=N)(=O)C)C4=C5C=CNC5=NC=C4 [AZD6738]; details: max 10 µM
Summary of the method: as §1

[22] = compound: CC(=O)c1c(C)c2cnc(Nc3ccc(N4CCNCC4)cn3)nc2n(C2CCCC2)c1=O [Palbociclib]; details: max 10 µM
Summary of the method: as §1

[23] = compound: C[C@@H](Oc1cc(-c2cnn(C3CCNCC3)c2)cnc1N)c1c(Cl)ccc(F)c1Cl [Crizotinib]; details: max 10 µM
Summary of the method: as §1

[24] = compound: COc1nnc2ccc(N3CCC(c4ccc(OCCN5CCN(C)C(=O)[C@H]5C)cc4)CC3)nn12 [AZD5153]; details: max 1 µM
Summary of the method: as §1

[25] = compound: O=C(c1cc(Cc2n[nH]c(=O)c3ccccc23)ccc1F)N1CCN(C(=O)C2CC2)CC1 [Olaparib]; details: max 10 µM
Summary of the method: as §1

[26] = compound: Cc1cc2ncnn2cc1Nc1ncc2c(n1)n(C1CCOCC1)c(=O)n2C [AZD7648]; details: max 10 µM
Summary of the method: as §1

[27] = compound: CC(=O)Nc1cccc(-n2c(=O)n(C3CC3)c(=O)c3c(Nc4ccc(I)cc4F)n(C)c(=O)c(C)c32)c1 [Trametinib]; details: max 1 µM
Summary of the method: as §1

Cell Line	IC50, cell viability 72 h [1]	IC50, cell viability 72 h [2]	IC50, cell viability 72 h [3]	IC50, cell viability 72 h [4]	IC50, cell viability 72 h [5]	IC50, cell viability 72 h [6]	IC50, cell viability 72 h [7]	IC50, cell viability 72 h [8]	IC50, cell viability 72 h [9]	IC50, cell viability 72 h [10]	IC50, cell viability 72 h [11]	IC50, cell viability 72 h [12]	IC50, cell viability 72 h [13]	IC50, cell viability 72 h [14]	IC50, cell viability 72 h [15]	IC50, cell viability 72 h [16]	IC50, cell viability 72 h [17]	IC50, cell viability 72 h [18]	IC50, cell viability 72 h [19]	IC50, cell viability 72 h [20]	IC50, cell viability 72 h [21]	IC50, cell viability 72 h [22]	IC50, cell viability 72 h [23]	IC50, cell viability 72 h [24]	IC50, cell viability 72 h [25]	IC50, cell viability 72 h [26]	IC50, cell viability 72 h [27]
23132-87 (Gastric Carcinoma)	> 10000 nM	> 10000 nM	> 1000 nM	> 1000 nM	32.6 nM	> 1000 nM	348 nM	> 3000 nM	> 2000 nM	> 10000 nM	375 nM	> 300 nM	369 nM	> 10000 nM	> 10000 nM	> 1 nM	> 1000 nM	> 10000 nM	22.1 nM	> 3000 nM	4790 nM	> 10000 nM	> 10000 nM	> 1000 nM	> 10000 nM	> 10000 nM	> 1000 nM
CAL-120 (Breast Carcinoma)	> 10000 nM	> 10000 nM	> 1000 nM	> 1000 nM	656 nM	825 nM	> 1000 nM	> 3000 nM	> 2000 nM	> 10000 nM	1620 nM	> 300 nM	> 1000 nM	> 10000 nM	> 10000 nM	> 1 nM	> 1000 nM	> 10000 nM	296 nM	> 3000 nM	> 10000 nM	> 10000 nM	> 10000 nM	> 1000 nM	> 10000 nM	> 10000 nM	> 1000 nM
FADU (Head and Neck Carcinoma)	> 10000 nM	> 10000 nM	> 1000 nM	> 1000 nM	79.1 nM	> 1000 nM	407 nM	> 3000 nM	> 2000 nM	3320 nM	> 3000 nM	> 300 nM	312 nM	9020 nM	> 10000 nM	> 1 nM	> 1000 nM	3160 nM	6.3 nM	> 3000 nM	> 10000 nM	> 10000 nM	> 10000 nM	> 1000 nM	> 10000 nM	> 10000 nM	> 1000 nM
GB-1 (Glioblastoma)	> 10000 nM	> 10000 nM	> 1000 nM	> 1000 nM	951 nM	> 1000 nM	> 1000 nM	> 3000 nM	> 2000 nM	9750 nM	> 3000 nM	> 300 nM	> 1000 nM	> 10000 nM	> 10000 nM	> 1 nM	> 1000 nM	> 10000 nM	32.7 nM	> 3000 nM	> 10000 nM	> 10000 nM	> 10000 nM	> 1000 nM	> 10000 nM	> 10000 nM	> 1000 nM
GP5d (Colorectal Carcinoma)	1500 nM	340 nM	764 nM	> 1000 nM	23.3 nM	> 1000 nM	329 nM	> 3000 nM	> 2000 nM	254 nM	542 nM	> 300 nM	552 nM	> 10000 nM	5020 nM	> 1 nM	> 1000 nM	> 10000 nM	73 nM	> 3000 nM	3640 nM	> 10000 nM	6990 nM	168 nM	> 10000 nM	> 10000 nM	17.4 nM
HCT-15 (Colorectal Carcinoma)	> 10000 nM	> 10000 nM	> 1000 nM	> 1000 nM	139 nM	> 1000 nM	> 1000 nM	> 3000 nM	1730 nM	3860 nM	544 nM	> 300 nM	619 nM	> 10000 nM	4210 nM	> 1 nM	> 1000 nM	> 10000 nM	53.5 nM	> 3000 nM	4000 nM	> 10000 nM	7410 nM	227 nM	> 10000 nM	> 10000 nM	> 1000 nM
